Several values for one entry are separate records, joined by “and”; a condition that tells them apart may be missing. Equal entries are not always repeated. Marks after values point to notes of the source that are not given here.
How the values were obtained:
[1] = biological target: T1, OATP1B3 (Homo sapiens, UniProt Q9NPD5); assay: OATP1B3 inhibition, rosuvastatin uptake into transporter-expressing HEK293 cells; assay type: cell-based; details: for IC50: IC50 (95% CI), μM OATP1B3, 2.5 μM rosuvastatin, 2 min, 30 min preincubation; for Calculated R-value OATP1B3: R = 1 + (I in,max,u/IC50), FDA cut-off ≥ 1.1
T1 construct: expressed in transfected cells; host or cells: HEK293 (recombinant baculovirus-mediated transduction)
T1 sequence (Q9NPD5 1-702): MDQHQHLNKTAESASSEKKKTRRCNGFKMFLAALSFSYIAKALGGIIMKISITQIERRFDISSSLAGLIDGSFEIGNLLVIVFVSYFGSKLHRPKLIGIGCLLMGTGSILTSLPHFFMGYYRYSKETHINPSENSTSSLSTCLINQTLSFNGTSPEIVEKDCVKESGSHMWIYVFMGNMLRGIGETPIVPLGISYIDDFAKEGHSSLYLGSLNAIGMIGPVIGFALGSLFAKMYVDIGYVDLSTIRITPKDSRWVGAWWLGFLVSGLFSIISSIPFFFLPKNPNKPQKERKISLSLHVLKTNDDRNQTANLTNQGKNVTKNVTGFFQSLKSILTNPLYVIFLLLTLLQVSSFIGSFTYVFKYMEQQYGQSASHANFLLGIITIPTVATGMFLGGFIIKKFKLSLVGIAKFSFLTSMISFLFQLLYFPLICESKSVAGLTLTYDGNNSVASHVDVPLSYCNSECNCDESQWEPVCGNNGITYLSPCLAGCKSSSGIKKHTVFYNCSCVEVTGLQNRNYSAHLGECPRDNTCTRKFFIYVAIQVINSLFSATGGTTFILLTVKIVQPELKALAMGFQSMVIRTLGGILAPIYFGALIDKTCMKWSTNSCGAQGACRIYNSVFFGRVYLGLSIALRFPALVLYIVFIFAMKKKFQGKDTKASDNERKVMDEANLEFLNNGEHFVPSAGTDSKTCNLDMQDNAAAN
Description: (§1) The human transporters OATP1B1, OATP1B3, OATP2B1, and OAT1‐OAT4 and a negative control protein (enhanced yellow fluorescent protein, eYFP) were transiently expressed in human embryonic kidney 293 (HEK293) cells by recombinant baculovirus‐mediated transduction. Baculoviruses carrying human genes for the transporters were prepared as reported previously. HEK293 cells were cultured in DMEM containing 10% fetal bovine serum at 37°C and 5% CO2 and passaged two to three times per week. For the transport studies, 0.05 × 10^6 cells for 48‐well plates (OATPs) or 0.06 × 10^6 cells for 24‐well plates (OATs) were seeded onto cell‐culture treated well plates coated with poly‐D‐lysine. After 1 day, cells were transduced to produce recombinant proteins by changing media to DMEM containing 30 μL (48‐well plates) or 60 μL (24‐well plates) of recombinant baculovirus and 3 mM (OATs) or 5 mM (OATPs) sodium butyrate in a total media volume of 500 μL. The cells were cultured for a further 2 days before the transport assays.
For the transport studies, media were removed and cells were washed once with warm transport uptake buffer (TP‐buffer—pH 7.4 HBSS with 25 mM HEPES and 4 mM sodium bicarbonate). Each experiment included triplicate (OATP) or duplicate (OAT) samples for every test condition. The uptake was started by removing liquid from wells and applying warm TP‐buffer (200 μL for 24‐well plates or 125 μL for 48‐well plates) containing a test compound to cells. Transport assays were terminated after a pre‐specified incubation time (reported in figure legends) by removing substrate solution and washing cells three times with cold TP‐buffer (300 μL for 48‐well plates and 400 μL for 24‐well plates). For the liquid chromatography mass spectrometry (LC–MS) analysis, compounds were extracted from cells with 125 μL (48‐well plates) or 250 μL (24‐well plates) of an ultrapure‐water solution containing 75% methanol and 0.1% formic acid, shaking at 250 RPM for 30 min. […] Samples were transferred to well plates, centrifuged at 3000 g for 30 min, and transferred to a new well plate for the analysis.
In the OATP inhibition assays, inhibitors in warm TP‐buffer were directly applied to cells after media removal, followed by a 30‐min preincubation step in the presence of inhibitors. […] OAT1 and OAT3 cells were lysed with 200 μL of 1 M sodium hydroxide for 10 min, and 150 μL of these samples were transferred to a black well plate for fluorescein quantification. […]
For the inhibition data analysis, the average of measured concentrations in the control cells was subtracted from the average of measured concentrations in transporter‐expressing cells for each inhibitor concentration and then normalized to the vehicle sample that represents 100% transport activity. […]

[2] = test system: T2, OAT2; assay: Uptake transport assay in OAT2-expressing HEK293 cells; assay type: cell-based, human; details: 2 and 50 μM, 10 min
T2 construct: expressed in transfected cells; host or cells: HEK293 (recombinant baculovirus-mediated transduction)
Description: as §1
For the transport studies, media were removed and cells were washed once with warm transport uptake buffer (TP‐buffer—pH 7.4 HBSS with 25 mM HEPES and 4 mM sodium bicarbonate). Each experiment included triplicate (OATP) or duplicate (OAT) samples for every test condition. […]

| SMILES | IC50 [1] | Calculated R-value OATP1B3 [1] | transport by OAT2 [2] |
| --- | --- | --- | --- |
| Cc1onc(-c2c(F)cccc2Cl)c1C(=O)N[C@@H]1C(=O)N2[C@@H]1SC(C)(C)[C@@H]2C(=O)O [Flucloxacillin] | 21 µM | 1.7 ^a | transported |
| Cc1onc(-c2c(Cl)cccc2Cl)c1C(=O)N[C@@H]1C(=O)N2[C@@H]1SC(C)(C)[C@@H]2C(=O)O [Dicloxacillin] | 6.7 µM and 6.68 µM | 1.8 ^a | transported |

— PMC12865225 (Clinical and Translational Science, 2026)
